Measured values published in US20210355138A1, “AMINOTHIAZINIES AND THEIR USE AS BACE1 INHIBITORS” (Eli Lilly and Company, priority 2016, published 2021).
Read-outs that look alike come from different tables or passages of the source.

Assays:
BACE1 = molecular target: T1, BACE1 (Homo sapiens, UniProt P56817); test: SH-SY5YAPP695Wt Whole Cell Assay (Abeta ELISA); format: cell-based; details: SH-SY5Y cells stably expressing human APP695Wt, 24 hours incubation, n=6
T1 construct: endogenous in cells; host or cells: SH-SY5Y (ATCC CRL2266) stably expressing human APP695Wt
T1 sequence (P56817 46-501): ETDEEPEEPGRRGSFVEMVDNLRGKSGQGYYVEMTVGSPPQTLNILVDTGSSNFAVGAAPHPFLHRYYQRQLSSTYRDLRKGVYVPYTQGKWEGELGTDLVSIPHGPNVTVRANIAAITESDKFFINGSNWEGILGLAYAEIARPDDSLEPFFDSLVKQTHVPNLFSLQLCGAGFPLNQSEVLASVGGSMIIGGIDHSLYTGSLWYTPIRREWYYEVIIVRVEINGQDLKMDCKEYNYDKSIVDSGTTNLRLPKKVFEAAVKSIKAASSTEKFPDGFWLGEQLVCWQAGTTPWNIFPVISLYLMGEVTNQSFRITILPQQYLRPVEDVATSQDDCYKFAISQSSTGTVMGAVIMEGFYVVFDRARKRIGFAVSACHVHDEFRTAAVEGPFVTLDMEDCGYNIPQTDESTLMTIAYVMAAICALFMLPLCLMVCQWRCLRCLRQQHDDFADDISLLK
Procedure: (§1) To assess selectivity of BACE1 over BACE2, the test compound is evaluated in FRET assays using specific substrates for BACE1 and BACE2 as described below. For in vitro enzymatic and cellular assays, the test compound is prepared in DMSO to make up a 10 mM stock solution. The stock solution is serially diluted in DMSO to obtain a ten-point dilution curve with final compound concentrations ranging from 10 μM to 0.05 nM in a 96-well round-bottom plate before conducting the in vitro enzymatic and whole cell assays.
The routine whole cell assay for the measurement of inhibition of BACE1 activity utilizes the human neuroblastoma cell line SH-SY5Y (ATCC Accession No. CRL2266) stably expressing a human APP695Wt cDNA. Cells are routinely used up to passage number 6 and then discarded.
SH-SY5YAPP695Wt cells are plated in 96 well tissue culture plates at 5.0×10^4 cells/well in 200 μL culture media (50% MEM/EBSS and Ham's F12, 1× each sodium pyruvate, non-essential amino acids and NaHCO3 containing 10% FBS). The following day, media is removed from the cells, fresh media added then incubated at 37° C. for 24 hours in the presence/absence of test compound at the desired concentration range.
At the end of the incubation, conditioned media are analyzed for evidence of beta-secretase activity by analysis of Abeta peptides 1-40 and 1-42 by specific sandwich ELISAs. […]

Human BACE1(1-460):Fc = molecular target: T2, Human BACE1(1-460):Fc (Homo sapiens, UniProt P56817); test: BACE1 FRET Assay; format: biochemical; details: purified recombinant huBACE1:Fc, FRET substrate based on APP sequence, pH 4.6; mean ± standard deviation of the mean (0.035), n=5
T2 construct: made in house; host or cells: HEK293 (transient transfection, conditioned medium)
T2 sequence (P56817 22-460): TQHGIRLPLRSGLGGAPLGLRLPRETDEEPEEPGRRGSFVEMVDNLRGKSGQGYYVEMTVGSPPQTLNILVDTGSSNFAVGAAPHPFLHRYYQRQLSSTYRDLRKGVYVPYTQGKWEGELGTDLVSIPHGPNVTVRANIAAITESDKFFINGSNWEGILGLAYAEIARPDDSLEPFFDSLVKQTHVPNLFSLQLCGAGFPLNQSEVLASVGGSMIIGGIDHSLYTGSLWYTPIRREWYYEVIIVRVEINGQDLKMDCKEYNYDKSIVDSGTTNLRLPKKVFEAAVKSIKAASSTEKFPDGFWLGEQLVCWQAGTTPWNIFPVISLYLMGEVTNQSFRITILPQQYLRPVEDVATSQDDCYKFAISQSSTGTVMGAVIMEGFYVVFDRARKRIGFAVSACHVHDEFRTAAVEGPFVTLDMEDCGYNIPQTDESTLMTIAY
Procedure: as §1
Human BACE1 (accession number: AF190725) and human BACE2 (accession number: AF 204944) are cloned from total brain cDNA by RT-PCR. The nucleotide sequences corresponding to amino acid sequences #1 to 460 are inserted into the cDNA encoding human IgG1 (Fc) polypeptide (Vassar et al., Science, 286, 735-742 (1999)). […]
Conditioned media of HEK293 cells transiently transfected with huBACE1:Fc or huBACE2:Fc cDNA are collected. […] The purity of the final product is assessed by electrophoresis in 4-20% Tris-Glycine SDS-PAGE. […]
Serial dilutions of the test compound are prepared as described above. […] The RFU of the mixture at time 0 is recorded at excitation wavelength 355 nm and emission wavelength 460 nm, after brief mixing on a plate shaker. […] The RFU at the end of incubation is recorded with the same excitation and emission settings used at time 0. […]

IC50 (BACE1; Abeta 1-40 in conditioned media, mean ± standard deviation of the mean (0.0104), read-out: IC50 for SH-SY5YAPP695Wt A-beta (1-40) ELISA): 0.026 nM
IC50 (BACE1; Abeta 1-42 in conditioned media, mean ± standard deviation of the mean (0.0187), read-out: IC50 for SH-SY5YAPP695Wt A-beta (1-42) ELISA): 0.0313 nM
IC50 (Human BACE1(1-460):Fc): 0.263 nM
SMILES: CC(F)(F)[C@H]1C[C@H]2CSC(N)=N[C@@]2(c2cc(NC(=O)c3ccc(C#N)cn3)ccc2F)CO1 [Example 1, N-[3-[(4aR,6R,8aS)-2-Amino-6-(1,1-difluoroethyl)-4a,5,6,8-tetrahydro-4H-pyrano[3,4-d][1,3]thiazin-8a-yl]-4-fluoro-phenyl]-5-cyano-pyridine-2-carboxamide]
